{
  "source": "patent US20230201214A1",
  "about": "“LPXC INHIBITOR, FORMULATIONS, AND USES THEREOF” (priority 2020, published 2023)",
  "key": {"[1]": {"test_system": "gram-negative and gram-positive bacterial strains", "assay": "Bacterial susceptibility testing, whole panel", "assay_type": "cell-based", "experimental": "(§1) Minimal inhibitory concentrations (MIC) against a variety of gram-negative and gram-positive bacterial strains were determined by the broth microdilution method in accordance with the Clinical and Laboratory Standards Institute (CLSI) guidelines. In brief, organism suspensions were adjusted to a 0.5 McFarland standard to yield a final inoculum between 3×10^5 and 7×10^5 colony-forming units (CFU)/mL. Drug dilutions and inocula were made in sterile, cation adjusted Mueller-Hinton Broth (Beckton Dickinson). An inoculum volume of 100 μL was added to wells containing 100 μL. of broth with 2-fold serial dilutions of drug. All inoculated microdilution trays were incubated in ambient air at 35° C. for 18-24 h. Following incubation, the lowest concentration of the drug that prevented visible growth (OD600 nm<0.05) was recorded as the MIC. Performance of the assay was monitored by the use of laboratory quality-control strains and levofloxacin, a compound with a defined MIC spectrum, in accordance with CLSI guidelines."}, "[2]": {"test_system": "N. cyriacigeorgica complex NEQAS 3295", "assay": "Bacterial susceptibility testing (MIC, broth microdilution)", "assay_type": "cell-based", "conditions": "Nocardia cyriacigeorgica", "experimental": "as §1"}, "[3]": {"assay": "Oral solution formulation excipient screening (solubility estimated by HPLC)", "assay_type": "physicochemical", "description": "The solubility of Compound A was estimated by HPLC in multiple potential excipients for a solution formulation (Table 4)."}},
  "data": [
    {"smiles": "N#CC1CN(C[C@@H](Cc2ncnc(O)c2O)c2ccc(C#Cc3ccc(CN4CCOCC4)cc3)cc2)C1", "note": "[Compound A, (S)-1-(3-(5,6-dihydroxypyrimidin-4-yl)-2-(4-((4-(morpholinomethyl)phenyl)ethynyl)phenyl)propyl)azetidine-3-carbonitrile]", "values": [
      {"measurement": "selectivity for gram-negative bacteria over gram-positive bacteria", "setting": "[1]; from MIC panel of Table 1", "result": "high selectivity"},
      {"measurement": "MIC", "setting": "[2]", "result": "> 64", "unit": "µg/mL"},
      {"measurement": "solubility", "setting": "[3]; Capmul MCM, oil or lipid", "result": 330, "unit": "µg/mL"},
      {"measurement": "solubility", "setting": "[3]; Cremophor RH40, aqueous with cosolvent or surfactant or cyclodextrin", "result": 900, "unit": "µg/mL"},
      {"measurement": "solubility", "setting": "[3]; HCl solution (pH 0.5), pH 0.5, simulated gastric fluid", "result": "≥ 45000", "unit": "µg/mL"},
      {"measurement": "solubility", "setting": "[3]; Labrafil M 1944, oil or lipid", "result": 120, "unit": "µg/mL"},
      {"measurement": "solubility", "setting": "[3]; Lactic acid, organic solvent or mixture", "result": "≥ 20000", "unit": "µg/mL"},
      {"measurement": "solubility", "setting": "[3]; Maisine CC, oil or lipid", "result": 130, "unit": "µg/mL"},
      {"measurement": "solubility", "setting": "[3]; Oleic acid, oil or lipid", "result": 480, "unit": "µg/mL"},
      {"measurement": "solubility", "setting": "[3]; Peppermint oil, oil or lipid", "result": 50, "unit": "µg/mL"},
      {"measurement": "solubility", "setting": "[3]; Polysorbate 20, aqueous with cosolvent or surfactant or cyclodextrin", "result": 850, "unit": "µg/mL"},
      {"measurement": "solubility", "setting": "[3]; Polysorbate 80, aqueous with cosolvent or surfactant or cyclodextrin", "result": 620, "unit": "µg/mL"},
      {"measurement": "solubility", "setting": "[3]; Propylene glycol (pH 0.5), pH 0.5, organic solvent or mixture", "result": "≥ 45000", "unit": "µg/mL"},
      {"measurement": "solubility", "setting": "[3]; Propylene glycol, organic solvent or mixture", "result": "< 10000", "unit": "µg/mL"},
      {"measurement": "solubility", "setting": "[3]; SBEβCD (30% w/v), pH 0.5, pH 0.5, aqueous with cosolvent or surfactant or cyclodextrin", "result": "≥ 45000", "unit": "µg/mL"},
      {"measurement": "solubility", "setting": "[3]; SBEβCD (30% w/v), pH 3, pH 3, aqueous with cosolvent or surfactant or cyclodextrin", "result": "< 10000", "unit": "µg/mL"},
      {"measurement": "solubility", "setting": "[3]; Solutol HS 15, aqueous with cosolvent or surfactant or cyclodextrin", "result": 630, "unit": "µg/mL"},
      {"measurement": "solubility", "setting": "[3]; Soybean oil, oil or lipid", "result": 20, "unit": "µg/mL"},
      {"measurement": "solubility", "setting": "[3]; Transcutol (pH 0.5), pH 0.5, organic solvent or mixture", "result": "≥ 10000", "unit": "µg/mL"},
      {"measurement": "solubility", "setting": "[3]; Transcutol, organic solvent or mixture", "result": "< 10000", "unit": "µg/mL"},
      {"measurement": "solubility", "setting": "[3]; Vitamin E TPGS, aqueous with cosolvent or surfactant or cyclodextrin", "result": "< 10000", "unit": "µg/mL"},
      {"measurement": "solubility", "setting": "[3]; aqueous with cosolvent or surfactant or cyclodextrin, Gelucire 44/14 (surfactant)", "result": "< 10000", "unit": "µg/mL"},
      {"measurement": "solubility in excipients, overall", "setting": "[3]; most excipients, acidifying the excipients led to higher solubility", "result": "Low solubility"},
      {"measurement": "solubility", "setting": "[3]; organic solvent or mixture, PEG400 (co-solvent)", "result": "< 10000", "unit": "µg/mL"}
    ]},
    {"smiles": "C[C@H]1COc2c(N3CCN(C)CC3)c(F)cc3c(=O)c(C(=O)O)cn1c23", "note": "[Levofloxacin]", "values": [
      {"measurement": "MIC", "setting": "[2]", "result": 8, "unit": "µg/mL"}
    ]},
    {"smiles": "C[C@@H](O)[C@H]1C(=O)N2C(C(=O)O)=C(S[C@@H]3CN[C@H](C(=O)N(C)C)C3)[C@H](C)[C@H]12", "note": "[Meropenem, reference compound]", "values": [
      {"measurement": "activity against gram-positive bacteria", "setting": "[1]; various strains of gram-positive bacteria", "result": "do have activity"},
      {"measurement": "MIC", "setting": "[2]", "result": "> 1", "unit": "µg/mL"}
    ]}
  ]
}
